Assay [1] deals with T1, GPIb (Homo sapiens, UniProt P07359).
T1 construct: endogenous in cells; host or cells: fresh or formalin-fixed platelets
Description: Inhibition of ristocetin-induced binding of 125I-vWF to formalin-fixed platelets by peptides. The note with it: formalin-fixed platelets 1 x 10¹¹/liter, 125I-vWF 5 micrograms/ml, ristocetin 1.0 mg/ml, 30 minutes room temperature; read-out: IC₅₀ (concentration of peptide which inhibited binding by 50%). The method, then: To test the inhibition of ristocetin-induced binding of vWF to platelets by peptides, formalin-fixed platelets were used at a final concentration of 1 x 10¹¹/liter. Peptides to be tested were then added at various concentrations. One third final volume of vWF deficient plasma was then added followed by ¹²⁵I-vWF a final concentration of 5 micrograms/ml. Ristocetin was then added at a concentration of 1.0 mg/ml. After incubation for 30 minutes at room temperature bound and free ligand were separated by centrifuging 50 microliters of the mixture through 300 microliters of 20% sucrose at 12,000 x g for 4 minutes. The platelet pellet was then separated from the rest of the mixture to determine platelet-bound radioactivity. Nonspecific binding was defined as the residual binding of ¹²⁵I-vWF in the presence of a 50-fold excess of unlabeled vWF but in the absence of any peptides.
Percent inhibition with a given peptide was calculated by […]. The IC₅₀'s (concentration of peptide which inhibited binding by 50%) for the peptides tested were as follows: […]

In assay [2] the target is T1, GPIb. Description: Inhibition of 125I-asialo-vWF binding to fresh platelets by peptides. The method, then: To test the inhibitions of asialo-vWF binding to platelets, fresh platelets were used. These were prepared by drawing blood into 11 millimolar trisodium citrate and 2 millimolar EDTA. Platelet-rich plasma was then prepared by differential centrifugation. The platelet count was then adjusted to 1 x 10¹¹/liter. Peptides were then added to various concentrations and ¹²⁵I-asialo-vWF was then added at a final concentration of 5 micrograms/ml. After incubation for 30 minutes at room temperature bound and free ligand were separated by centrifuging 50 microliters of the mixture through 300 microliters of 20% sucrose at 12,000 x g for 4 minutes. The platelet pellet was then separated from the rest of the mixture to determine platelet-bound radioactivity. Non-specific binding was defined as the residual binding of ¹²⁵I-asialo-vWF in the presence of a 50-fold excess of unlabeled vWF but in the absence of any peptides.
Percent inhibition with a given peptide was calculated by dividing the specific cpm obtained when various concentrations of peptide were added by the specific cpm in the absence of peptide. The IC₅₀'s (concentration of peptide which inhibited binding by 50%) for the peptides tested were as follows: […]

Setting [3] is: fresh platelets 1 x 10¹¹/liter, 125I-asialo-vWF 5 micrograms/ml, 30 minutes room temperature, read-out: IC₅₀ (concentration of peptide which inhibited binding by 50%).

pIC50: −log10 of the molar value. Where a SMILES comes first, the peptide text is derived from it. Where no end group is shown, it is not given here.

We go through 5 compounds from EP0317278A2, “Proteolytic fragments and synthetic peptides that block the binding of von Willebrand factor to the platelet membrane glycoprotein Ib” (SCRIPPS CLINIC AND RESEARCH FOUNDATION, priority 1987, dated 1989).

T1 sequence (P07359 17-652): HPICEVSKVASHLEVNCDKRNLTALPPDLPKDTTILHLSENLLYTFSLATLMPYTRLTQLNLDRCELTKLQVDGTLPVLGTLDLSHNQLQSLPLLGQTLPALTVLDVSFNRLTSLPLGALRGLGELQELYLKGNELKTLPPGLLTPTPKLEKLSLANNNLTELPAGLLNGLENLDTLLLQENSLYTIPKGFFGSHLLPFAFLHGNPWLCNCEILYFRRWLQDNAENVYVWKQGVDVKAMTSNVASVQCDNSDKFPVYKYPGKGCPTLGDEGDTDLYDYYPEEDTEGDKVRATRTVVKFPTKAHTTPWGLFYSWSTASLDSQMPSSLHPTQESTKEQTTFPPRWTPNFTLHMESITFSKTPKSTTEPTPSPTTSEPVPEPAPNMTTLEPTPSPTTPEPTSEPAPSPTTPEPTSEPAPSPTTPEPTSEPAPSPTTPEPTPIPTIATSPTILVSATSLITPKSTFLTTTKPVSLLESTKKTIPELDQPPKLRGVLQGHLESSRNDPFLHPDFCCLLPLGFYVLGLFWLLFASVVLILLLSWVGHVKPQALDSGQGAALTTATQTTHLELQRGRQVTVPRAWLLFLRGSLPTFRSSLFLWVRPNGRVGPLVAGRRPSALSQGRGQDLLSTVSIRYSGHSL
T1 sequence (P13224 26-206 partner): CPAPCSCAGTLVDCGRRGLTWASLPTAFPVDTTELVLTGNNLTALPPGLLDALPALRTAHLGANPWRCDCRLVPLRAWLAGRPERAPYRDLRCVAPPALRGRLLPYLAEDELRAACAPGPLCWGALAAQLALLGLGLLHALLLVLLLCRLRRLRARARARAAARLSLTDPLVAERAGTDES
T1 sequence (P14770 17-177 partner): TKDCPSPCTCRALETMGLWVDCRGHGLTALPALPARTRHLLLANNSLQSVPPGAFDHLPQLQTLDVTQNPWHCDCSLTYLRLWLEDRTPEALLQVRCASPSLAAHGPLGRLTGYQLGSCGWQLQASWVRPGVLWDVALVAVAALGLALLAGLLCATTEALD

Take KRKRKR [(KR)₃]: the pIC50 at GPIb [1] is 3.92; at GPIb [2] (setting [3]), 4.64. Turning to YRGDV [YRGDV, reference compound], at GPIb [1], the pIC50 was under 3.22. In the case of RRRRRRRRGDV [(R)₈GDV], the pIC50 is 5.22 on GPIb [1] and 5.46 on GPIb [2].

On to KRKRKRKRGDV [(KR)₄GDV], for which the pIC50 at GPIb [1] is 4.80; at GPIb [2] (setting [3]), 4.82. For `N=C(N)NCCC[C@H](NC(=O)[C@H](CCCCN)NC(=O)[C@H](CCCNC(=N)N)NC(=O)[C@@H](N)CCCCN)C(=O)O` [(KR)₂] (H-KRKR-OH), the pIC50 on GPIb [1] was 3.70.
